Literature values, collected in patent US20210227865A1, “LOW GLYCEMIC COMPOSITION AND METHODS OF MAKING AND USING THEREOF” (Seattle Gummy Company, priority 2018, published 2021).

Columns and labels:
[1] = for sweetness compared with sucrose (in words): relative to sucrose (table sugar)
[2] = in vivo
[3] = FIG. 3 (trehalose), FIG. 4 (isomaltulose)

SMILES | sweetness compared with sucrose (in words) [1] | GI value [2] | other results
O=C(CO)[C@H](O)[C@H](O)[C@H](O)CO [Psicose, psicose] | identical to sucrose | – | sweetness relative to sucrose ([1]; relative to sucrose): 70%
O=C(CO)[C@@H](O)[C@H](O)[C@H](O)CO [fructose] | – | 19 | –
OC[C@H]1O[C@H](O[C@H]2O[C@H](CO)[C@@H](O)[C@H](O)[C@H]2O)[C@H](O)[C@@H](O)[C@@H]1O [trehalose] | – | – | effect on blood glucose levels (in words) [3]: does not cause a spike in glucose levels
O=C(CO)[C@H](O)[C@@H](O)[C@H](O)CO [Sorbose, sorbose] | equivalent to sucrose in sweetness | – | –
OC[C@H]1O[C@H](OC[C@H]2OC(O)(CO)[C@@H](O)[C@@H]2O)[C@H](O)[C@@H](O)[C@@H]1O (stereo partly drawn) [Isomaltulose, isomaltulose] | – | about 30 | effect on blood glucose levels (in words) [3]: does not cause a spike in glucose levels
OC[C@H]1O[C@@](CO)(O[C@H]2O[C@H](CO)[C@@H](O)[C@H](O)[C@H]2O)[C@@H](O)[C@@H]1O [sucrose] | – | 63 | –
O=C(CO)[C@@H](O)[C@@H](O)[C@H](O)CO [Tagatose, tagatose] | nearly as sweet as sucrose | – | –
